The test system of data set [1] is cryopreserved human hepatocytes. The data set can be described thus: Human Hepatocyte Stability Assay. The format is in vitro ADME. The protocol:
(§1) The metabolic stability of Compound 1 was evaluated using cryopreserved hepatocytes from mice, rats, dogs, cynomolgus monkeys, and humans.
(§2) 50 μL of 1 mM intermediate solutions for each test compound was prepared by adding 5 μL of 10 mM stock solution to 45 μL of a 1:1 mixture of water and acetonitrile. A 2 μM working stocks for each test compound were prepared in incubation media, InvitroGRO™ KHB (Bio IVT, Westbury, NY, USA), by adding 2 μL of 1 mM intermediate stock to 998 μL of incubation media.
(§3) To thaw the hepatocytes, InvitroGRO™ HT thawing medium (BioIVT, Westbury, NY, USA) was prewarmed to 37° C., and 48 mL of warmed thawing medium was transferred to a sterile 50 mL conical tube. The hepatocyte vial was removed from the liquid nitrogen Dewar, and gently thawed in a water bath at 37° C. for 1-2 minutes, then the contents of the vial were emptied into a conical tube with prewarmed InvitroGRO HT medium. 1 mL of prewarmed InvitroGRO HT medium was added to each emptied hepatocyte vial to resuspend any remaining cells, and the contents were pipetted into the hepatocyte suspension. The tube containing the hepatocyte suspension was centrifuged at 50*g for 5 minutes. The supernatant was removed carefully, and the remaining pellet was resuspended by adding 1 mL of incubation media, InvitroGRO KHB, and gently shaking until there were no clumps.
(§4) Cell viability was determined using the trypan blue method. 25 μL of hepatocyte cell suspension was added to a trypan blue (TB) solution (containing 775 μL InvitroGRO KHB and 200 μL of Trypan Blue). Cell count was taken using a hemacytometer.
(§5) For mouse hepatocytes, 200 μL of hepatocytes (0.8×10^6 cells/mL) were added to the wells of a 48 well plate (Catalog No. 92048, TPP Techno Plastic Products AG, Trasadingen, Switzerland) and pre-incubated for 30 minutes at 37° C. For rat, dog, monkey, […], 200 μL of hepatocytes (2×10^6 cells/mL) were added to the wells of a 48 well plate (Catalog No. 92048, TPP Techno Plastic Products AG, Trasadingen, Switzerland) and pre-incubated for 30 minutes at 37° C.
(§6) For all species of hepatocytes, once the pre-incubation period was complete, 200 μL of 2 μM working stock of test compound was added to the wells of the plate, and the plate was vortexed on a Vibramax™ 100 (P/N 544-21200-00, Heidolph Instruments GmbH & Co. KG, Schwabach, Germany) at 500 rpm in a 37° C. CO2 incubator (Model No. 51026280, ThermoFisher Scientific, Waltham, MA, USA). At each time point of 0, 15, 30, 60, 90, and 120 minutes, 50 μL of incubation mixture was precipitated with 200 μL of acetonitrile containing internal standard.
(§7) At the end of the experiment, the samples were centrifuged at 4000 rpm for 10 minutes. […]

The nature of data set [2]: Human Hepatocyte Stability Assay. The format is in vitro ADME. Conditions: cryopreserved hepatocytes. How it is done:
as §1, §2, §3, §4, §5, §6, §7

The test system of data set [3] is Yamato-SS synovial sarcoma cell line. The data set can be described thus: Global proteomics in Yamato-SS cells. The format is cell-based, human. Conditions: 100 nM, 4 hours; for Emax at 0.1 µM: Homo sapiens. The protocol:
(§8) Global protein expression was performed in Yamato-SS and HSSYII synovial sarcoma cell lines after 4-hour treatment with Compound 1 (100 nM). The Yamato-SS cell line was provided by the RIKEN BRC through the National BioResource Project of the MEXT/AMED, Japan (cat #RCB3577), and the HS-SY-II cell line was provided by the RIKEN BRC through the National BioResource Project of the MEXT/AMED, Japan (cat #RCB2231).
(§9) Both Yamato-SS and HSSYII cell lines were treated with Compound 1 at 100 nM for 4 hours and analyzed by multiplexed quantitative proteomics. The x-axis illustrates the totality of the proteomics data and is labeled as fold change (FC) of Compound 1 vs vehicle in a Log 2 transformation scale. The statistical significance (T-test of treated vs. DMSO with Benjamini-Hochberg correction applied) of the observed changes is shown in the y-axis as negative Log 10 of the P-value. The horizontal dashed line marks the statistical significance (P-value ≤0.001) and the vertical line marks fold change ≥2.

Data set [4] can be described thus: Approximate solubility in solvents at 25° C. and 50° C. (visual observation). The class given is physicochemical. Particulars: thermodynamic from solid, 25° C., target conc. = 250 mg/mL. How it is done: Max. volume of each solvent added was 1 mL. Approximate solubility was determined by visual observation.
Max volume of each solvent added was 1 mL. Approximate solubility was determined by visual observation.

The test system of data set [5] is HSSYII synovial sarcoma cell line. The data set can be described thus: Global proteomics in HSSYII cells. The class given is cell-based, human. Conditions: 100 nM, 4 hours. How it is done: as §8, §9

Converted amounts (≈) assume the structure as drawn. Where two headings read alike, the source gives them in different places.

The text below walks through data of US20240245677A1, “SELECTED COMPOUNDS FOR TARGETED DEGRADATION OF BRD9” (C4 THERAPEUTICS, INC., priority 2021, published 2024).

As for `COc1cc(-c2cn(C)c(=O)c(C)c2C)cc(OC)c1CN1CC[C@H](N2CCN(c3ccc(N[C@H]4CCC(=O)NC4=O)cc3F)CC2)C(F)(F)C1` [Compound 1, (S)-3-((4-(4-((S)-1-(2,6-dimethoxy-4-(1,4,5-trimethyl-6-oxo-1,6-dihydropyridin-3-yl)benzyl)-3,3-difluoropiperidin-4-yl)piperazin-1-yl)-3-fluorophenyl)amino)-piperidine-2,6-dione], the “CLhb scaled well stirred” value in data set [1] turned out to be 8.4 mL/min/kg body wt. Moreover, the half-life at 1 µM in data set [2] was above 2 h. In data set [2] (read-out: CL int cells), the hepatocyte CLint at 1 µM came out at 4.67 µL/min/1e6 cells. The CLint scaled at 1 µM in data set [2] (read-out: CL int in vivo) came out at 14.4 mL/min/kg. The “ADAMST1 protein level decrease vs DMSO control” value in data set [3] is recorded as 66.3%. For the same compound, the “BRD9 protein level decrease vs DMSO control” value came out at 66.5% in data set [3] and 66.7% in data set [5]. Also, the Emax at 0.1 µM in data set [3] (read-out: ADAMST1 Emax) stood at 33.7%; in data set [3] (read-out: BRD9 Emax) it was 33.5%; in data set [5] (Homo sapiens, read-out: BRD9 Emax) it was 33.3%. Moreover, the Solubility in data set [4] (organic solvent or mixture, Acetone) was 17000 to 25000 µg/mL (≈ 23.9 to 35.2 mM); in data set [4] (organic solvent or mixture, Acetonitrile), 6000 to 7000 µg/mL (≈ 8.44 to 9.85 mM); in data set [4] (organic solvent or mixture, Ethanol), 5000 to 6000 µg/mL (≈ 7.03 to 8.44 mM); in data set [4] (organic solvent or mixture, Ethyl acetate), 5000 to 6000 µg/mL (≈ 7.03 to 8.44 mM); in data set [4] (organic solvent or mixture, Heptane), below 5000 µg/mL; in data set [4] (organic solvent or mixture, MTBE (Methyl tert-butyl ether)), below 5000 µg/mL. Further, the Solubility was 10000 to 17000 µg/mL (≈ 14.1 to 23.9 mM) in data set [4] (organic solvent or mixture, Methanol); 8000 to 13000 µg/mL (≈ 11.3 to 18.3 mM) in data set [4] (organic solvent or mixture, Methanol/water (v:v = 95:5)); above 250000 µg/mL in data set [4] (organic solvent or mixture, THF (Tetrahydrofuran)); below 5000 µg/mL in data set [4] (Water).
